These results are taken from the SangsterLogP compilation.

As usually defined, the logD is the decadic logarithm of the distribution of all forms, ionised or not, between an organic phase and buffer at a given pH. A higher logD goes with a more lipophilic compound.

A short description of this data set: method code SF-AS, from DOI: 10.1016/j.ejmech.2011.01.053, PMID: 21334792. As to conditions: pH 7.4.
`CC(C)(C)C(=O)NC(C(=O)ON=C1c2ccccc2-c2c1c(N1CCN(c3ccccn3)CC1)nc1ccc(Br)cc21)C(C)(C)C` (stereo not drawn) had a pH-dependent lipophilicity (logD) of 1.5. Then `ON=C1c2ccccc2-c2c1c(C1C=CN=C1)nc1ccc(Br)cc21` (stereo not drawn), with 0.23.

Molecule `CCCCCCC(=O)ON=C1c2ccccc2-c2c1c(C1C=CN=C1)nc1ccc(Br)cc21` (stereo not drawn) gave a logD of 1.51.

Turning to `CCCCCC(=O)ON=C1c2ccccc2-c2c1c(N1CCN(c3ccc[nH]3)CC1)nc1ccc(Br)cc21`, the pH-dependent lipophilicity (logD) worked out at 2.06. Regarding `O=C(CCCCBr)ON=C1c2ccccc2-c2c1c(N1CCN(c3ccccn3)CC1)nc1ccc(Br)cc21`, the logD worked out at 1.47. The result for `CC(C)(C)OC(=O)NCC(=O)ON=C1c2ccccc2-c2c1c(N1CCN(c3ccccn3)CC1)nc1cccc(Br)c21` reads 0.7. The result for `CCC(=O)ON=C1c2ccccc2-c2c1c(N1CCN(c3ccccn3)CC1)nc1ccc(Br)cc21` reads 2.65. In turn, `CN(C)C(=O)ON=C1c2ccccc2-c2c1c(N1CCN(c3ccccn3)CC1)nc1ccc(Br)cc21` came in with a logD of 2.34. The result for `CCCC(=O)O/N=C1\c2ccccc2-c2c1c(-n1ccnc1)nc1ccc(Br)cc21` reads 1.17; that for `CCCCCC(=O)ON=C1c2ccccc2-c2c1c(C1C=CN=C1)nc1ccc(Br)cc21` (stereo not drawn), 2.11.

On to `CC(=O)ON=C1c2ccccc2-c2c1c(C1C=CN=C1)nc1ccc(Br)cc21` (stereo not drawn), for which the pH-dependent lipophilicity (logD) was 1.11. With `CC1(O)c2ccccc2-c2c1c(-n1ccnc1)nc1ccc(Br)cc21` (stereo not drawn), the logD came out at 1.73. The result for `O=C(C=Cc1ccco1)ON=C1C2=C(c3ccccc31)c1c(Br)cccc1NC2N1CCN(c2ccccn2)CC1` (stereo not drawn) reads 1.43; that for `CC(C)(C)OC(=O)N1CCCC1C(=O)O/N=C1\c2ccccc2-c2c1c(-n1ccnc1)nc1ccc(Br)cc21` (stereo not drawn), 1.28; that for `CC1(OC(=O)CC(F)(F)F)c2ccccc2-c2c1c(-n1ccnc1)nc1ccc(Br)cc21` (stereo not drawn), 1.83. Then `CC(C)(C)OC(=O)NC(Cc1cccc(F)c1)ON=C1c2ccccc2-c2c1c(N1CCN(c3ccccn3)CC1)nc1ccc(Br)cc21` (stereo not drawn), with 1.14. The molecule `CCCCC(=O)ON=C1c2ccccc2-c2c1c(C1C=CN=C1)nc1ccc(Br)cc21` (stereo not drawn) displayed a logD of 1.64. Then `CC(=O)NCC(=O)ON=C1c2ccccc2-c2c1c(N1CCN(c3ccccn3)CC1)nc1ccc(Br)cc21`, with 1.18.
